According to the supplement of paper PMC10307832:

Assays:
Test in all cases: relative viability (nuclei count vs DMSO), 5 days (fraction); higher = more cells survive
H3255 = tested on: H3255
Procedure, shortened: (§1)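 Relative viability was taken as the ratio of nuclei in treated wells to nuclei in vehicle wells. Lung cancer cell lines in 1536-well plates received compounds by pin tool one day after seeding, either one drug alone or a fixed anchor-drug dose plus five library-drug doses (not always all listed) in √10 steps. Nuclei were counted on 4× images after 5 days of treatment, and values are medians of duplicate plates.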

201T = tested on: 201T
Procedure, shortened: as §1

NCI-H1915 = tested on: NCI-H1915
Procedure, shortened: as §1

HCC-78 = tested on: HCC-78
Procedure, shortened: as §1

NCI-H647 = tested on: NCI-H647
Procedure, shortened: as §1

NCI-H2126 = tested on: NCI-H2126
Procedure, shortened: as §1

LC-2-ad = tested on: LC-2-ad
Procedure, shortened: as §1

COR-L 105 = tested on: COR-L 105
Procedure, shortened: as §1

NCI-H2087 = tested on: NCI-H2087
Procedure, shortened: as §1

HCC-827 = tested on: HCC-827
Procedure, shortened: as §1

NCI-H23 = tested on: NCI-H23
Procedure, shortened: as §1

RERF-LC-KJ = tested on: RERF-LC-KJ
Procedure, shortened: as §1

NCI-H2405 = tested on: NCI-H2405
Procedure, shortened: as §1

NCI-H2347 = tested on: NCI-H2347
Procedure, shortened: as §1

ChaGo-K-1 = tested on: ChaGo-K-1
Procedure, shortened: as §1

NCI-H520 = tested on: NCI-H520
Procedure, shortened: as §1

NCI-H650 = tested on: NCI-H650
Procedure, shortened: as §1

LCLC-97TM1 = tested on: LCLC-97TM1
Procedure, shortened: as §1

NCI-H661 = tested on: NCI-H661
Procedure, shortened: as §1

EPLC-272H = tested on: EPLC-272H
Procedure, shortened: as §1

NCI-H1666 = tested on: NCI-H1666
Procedure, shortened: as §1

PC-14 = tested on: PC-14
Procedure, shortened: as §1

`CC(=O)O[C@@]12CO[C@@H]1C[C@H](O)[C@@]1(C)C(=O)[C@H](O)C3=C(C)[C@@H](OC(=O)[C@H](O)[C@@H](NC(=O)OC(C)(C)C)c4ccccc4)C[C@@](O)([C@@H](OC(=O)c4ccccc4)[C@H]21)C3(C)C` [Docetaxel] + Nc1nc2[nH]cc(CCc3ccc(C(=O)N[C@@H](CCC(=O)O)C(=O)O)cc3)c2c(=O)[nH]1 [Pemetrexed] (partner 0.2 µM) was tested, and the relative viability (H3255; first compound 0.0002 µM) was 0.494, the relative viability (H3255; first compound 0.000632 µM) was 0.595 and the relative viability (H3255; first compound 0.002 µM) was 0.437. It also gave a relative viability (H3255; first compound 0.006325 µM) of 0.368, a relative viability (H3255; first compound 0.02 µM) of 0.359 and a relative viability (201T; first compound 0.0002 µM) of 0.36. The relative viability (201T; first compound 0.000632 µM) was 0.32, the relative viability (201T; first compound 0.002 µM) was 0.312 and the relative viability (201T; first compound 0.006325 µM) was 0.424. It also gave a relative viability (201T; first compound 0.02 µM) of 0.255, a relative viability (NCI-H1915; first compound 0.0002 µM) of 0.562 and a relative viability (NCI-H1915; first compound 0.000632 µM) of 0.47. It also gave a relative viability (NCI-H1915; first compound 0.002 µM) of 0.327, a relative viability (NCI-H1915; first compound 0.006325 µM) of 0.152 and a relative viability (NCI-H1915; first compound 0.02 µM) of 0.108. For the same compound, the relative viability (HCC-78; first compound 0.0002 µM) was 0.892, the relative viability (HCC-78; first compound 0.000632 µM) was 0.868 and the relative viability (HCC-78; first compound 0.002 µM) was 0.88. For the same compound, the relative viability (HCC-78; first compound 0.006325 µM) was 0.889, the relative viability (HCC-78; first compound 0.02 µM) was 0.861 and the relative viability (NCI-H647; first compound 0.0002 µM) was 0.175. The relative viability (NCI-H647; first compound 0.000632 µM) was 0.142, the relative viability (NCI-H647; first compound 0.002 µM) was 0.103 and the relative viability (NCI-H647; first compound 0.006325 µM) was 0.122. For the same compound, the relative viability (NCI-H647; first compound 0.02 µM) was 0.0856, the relative viability (NCI-H2126; first compound 0.0002 µM) was 0.79 and the relative viability (NCI-H2126; first compound 0.000632 µM) was 0.661. It also gave a relative viability (NCI-H2126; first compound 0.002 µM) of 0.456, a relative viability (NCI-H2126; first compound 0.006325 µM) of 0.391 and a relative viability (LC-2-ad; first compound 0.0002 µM) of 0.259. It also gave a relative viability (LC-2-ad; first compound 0.000632 µM) of 0.221, a relative viability (LC-2-ad; first compound 0.006325 µM) of 0.173 and a relative viability (LC-2-ad; first compound 0.02 µM) of 0.181. The relative viability (COR-L 105; first compound 0.0002 µM) was 1.06, the relative viability (COR-L 105; first compound 0.000632 µM) was 1.12 and the relative viability (COR-L 105; first compound 0.002 µM) was 0.656. For the same compound, the relative viability (COR-L 105; first compound 0.006325 µM) was 0.492, the relative viability (COR-L 105; first compound 0.02 µM) was 0.388 and the relative viability (NCI-H2087; first compound 0.0002 µM) was 0.553. For the same compound, the relative viability (NCI-H2087; first compound 0.000632 µM) was 0.509, the relative viability (NCI-H2087; first compound 0.002 µM) was 0.24 and the relative viability (NCI-H2087; first compound 0.006325 µM) was 0.168. It also gave a relative viability (NCI-H2087; first compound 0.02 µM) of 0.104, a relative viability (HCC-827; first compound 0.0002 µM) of 0.183 and a relative viability (HCC-827; first compound 0.000632 µM) of 0.282. For the same compound, the relative viability (HCC-827; first compound 0.006325 µM) was 0.238, the relative viability (HCC-827; first compound 0.02 µM) was 0.215 and the relative viability (NCI-H23; first compound 0.0002 µM) was 0.712. For the same compound, the relative viability (NCI-H23; first compound 0.000632 µM) was 0.557, the relative viability (NCI-H23; first compound 0.002 µM) was 0.258 and the relative viability (NCI-H23; first compound 0.006325 µM) was 0.207. It also gave a relative viability (NCI-H23; first compound 0.02 µM) of 0.14, a relative viability (RERF-LC-KJ; first compound 0.0002 µM) of 0.375 and a relative viability (RERF-LC-KJ; first compound 0.000632 µM) of 0.342. It also gave a relative viability (RERF-LC-KJ; first compound 0.002 µM) of 0.297, a relative viability (RERF-LC-KJ; first compound 0.006325 µM) of 0.173 and a relative viability (RERF-LC-KJ; first compound 0.02 µM) of 0.157. The relative viability (NCI-H2405; first compound 0.0002 µM) was 1.01, the relative viability (NCI-H2405; first compound 0.000632 µM) was 0.754 and the relative viability (NCI-H2405; first compound 0.002 µM) was 0.671. It also gave a relative viability (NCI-H2405; first compound 0.006325 µM) of 0.405, a relative viability (NCI-H2405; first compound 0.02 µM) of 0.389 and a relative viability (NCI-H2347; first compound 0.0002 µM) of 0.422. The relative viability (NCI-H2347; first compound 0.000632 µM) was 0.446, the relative viability (NCI-H2347; first compound 0.002 µM) was 0.419 and the relative viability (NCI-H2347; first compound 0.006325 µM) was 0.429. It also gave a relative viability (NCI-H2347; first compound 0.02 µM) of 0.357, a relative viability (ChaGo-K-1; first compound 0.0002 µM) of 0.269 and a relative viability (ChaGo-K-1; first compound 0.000632 µM) of 0.269. The relative viability (ChaGo-K-1; first compound 0.002 µM) was 0.276, the relative viability (ChaGo-K-1; first compound 0.006325 µM) was 0.268 and the relative viability (ChaGo-K-1; first compound 0.02 µM) was 0.181. For the same compound, the relative viability (NCI-H520; first compound 0.0002 µM) was 0.691, the relative viability (NCI-H520; first compound 0.000632 µM) was 0.471 and the relative viability (NCI-H520; first compound 0.002 µM) was 0.316. The relative viability (NCI-H520; first compound 0.006325 µM) was 0.207, the relative viability (NCI-H520; first compound 0.02 µM) was 0.159 and the relative viability (NCI-H650; first compound 0.0002 µM) was 0.941. It also gave a relative viability (NCI-H650; first compound 0.000632 µM) of 0.44, a relative viability (NCI-H650; first compound 0.002 µM) of 0.393 and a relative viability (NCI-H650; first compound 0.006325 µM) of 0.237. For the same compound, the relative viability (NCI-H650; first compound 0.02 µM) was 0.198, the relative viability (LCLC-97TM1; first compound 0.0002 µM) was 0.167 and the relative viability (LCLC-97TM1; first compound 0.000632 µM) was 0.161. The relative viability (LCLC-97TM1; first compound 0.002 µM) was 0.129, the relative viability (LCLC-97TM1; first compound 0.006325 µM) was 0.109 and the relative viability (LCLC-97TM1; first compound 0.02 µM) was 0.0702. For the same compound, the relative viability (NCI-H661; first compound 0.0002 µM) was 0.947, the relative viability (NCI-H661; first compound 0.000632 µM) was 0.944 and the relative viability (NCI-H661; first compound 0.002 µM) was 0.799. It also gave a relative viability (NCI-H661; first compound 0.006325 µM) of 0.572, a relative viability (NCI-H661; first compound 0.02 µM) of 0.366 and a relative viability (EPLC-272H; first compound 0.0002 µM) of 0.298. For the same compound, the relative viability (EPLC-272H; first compound 0.000632 µM) was 0.187, the relative viability (EPLC-272H; first compound 0.002 µM) was 0.139 and the relative viability (EPLC-272H; first compound 0.006325 µM) was 0.0965. It also gave a relative viability (EPLC-272H; first compound 0.02 µM) of 0.111, a relative viability (NCI-H1666; first compound 0.0002 µM) of 0.946 and a relative viability (NCI-H1666; first compound 0.000632 µM) of 0.808. The relative viability (NCI-H1666; first compound 0.002 µM) was 0.801, the relative viability (NCI-H1666; first compound 0.006325 µM) was 0.858 and the relative viability (NCI-H1666; first compound 0.02 µM) was 0.542. It also gave a relative viability (PC-14; first compound 0.0002 µM) of 0.13, a relative viability (PC-14; first compound 0.000632 µM) of 0.144 and a relative viability (PC-14; first compound 0.002 µM) of 0.129. For the same compound, the relative viability (PC-14; first compound 0.006325 µM) was 0.0511 and the relative viability (PC-14; first compound 0.02 µM) was 0.0414.
